{"source": "patent US10590393B2", "about": "“Retinoic acid enhanced human stem cell derived blood brain barrier model” (Wisconsin Alumni Research Foundation, priority 2012, dated 2020)", "assay_type_in_all_cases": "cell-based, human", "key": {"[1]": {"tested_on": "efflux transporter genes in IMR90-4-derived BMECs", "assay": "qPCR of efflux transporter gene expression", "conditions": "compared to untreated samples", "method": "Cells were washed once with PBS and dissociated with ACCUTASE (Invitrogen). Total RNA was extracted using an RNEASY Mini Kit (Qiagen) according to the manufacturer's instructions and quantified using a NanoDrop® ND-1000. cDNA was generated from 1 μg of total RNA using Omniscript reverse transcriptase (Qiagen) and an oligo-dT primer (Invitrogen). qPCR was conducted using 1 μL of cDNA and iQ SYBR Green Mastermix (Bio-Rad) on an iCycler (Bio-Rad). Relative expression was quantified between samples using the comparative cycle threshold (Ct) method with glyceraldehyde-3-phosphate dehydrogenase (GAPDH) as the housekeeping gene. […] Primer sequences were as previously reported."}, "IMR90-4-derived BMECs [2]": {"tested_on": "IMR90-4-derived BMECs", "assay": "TEER of RA-treated IMR90-4-derived BMECs (monoculture and neural cell co-culture)", "method": "IMR90-4 and DF19-9-11T hiPSCs and H9 hESCs were maintained between passages 26-42 on […] (BD Biosciences) in mTeSR1™ medium ([…] Technologies) or on irradiated mouse embryonic fibroblasts (MEFs) in standard unconditioned medium (Dulbecco's Modified Eagle's Medium [DMEM]/Ham's F12 containing 20% Knockout Serum Replacer (Invitrogen), 1×MEM nonessential amino acids (Invitrogen), 1 mM L-glutamine (Sigma), 0.1 mM β-mercaptoethanol (Sigma), and human basic fibroblast growth factor (bFGF; 100 ng/mL for hiPSCs and 4 ng/mL for hESCs; Waisman Clinical Biomanufacturing Facility, University of Wisconsin-Madison)). Prior to differentiation, cells were passaged onto Matrigel (BD Biosciences) in mTeSR1 medium ([…] Technologies). After 2-3 days in mTeSR1, medium was switched to unconditioned medium (UM) lacking bFGF for 6 days. Human endothelial serum-free medium (hESFM; Invitrogen) supplemented with 20 ng/mL bFGF (R&D Systems) and 1% platelet-poor plasma derived bovine serum (Biomedical Technologies, Inc.) was then added for an additional 2-4 days.\nAll-trans RA (Sigma) was included at concentrations of 1-10 μM depending on the experiment. Equivalent DMSO was used as a vehicle control in some experiments. Cells were then dissociated with Versene (Invitrogen) and plated onto 12-well tissue culture polystyrene plates or 1.12 cm^2 Transwell-Clear® permeable inserts (0.4 μm pore size) coated with a mixture of collagen IV (400 μg/mL; Sigma) and fibronectin (100 μg/mL; Sigma). Culture plates were incubated with the coating for at least 30 min at 37° C., while the inserts were incubated for a minimum of 4 h at 37° C. hPSC-derived BMECs were then cultured in EC medium overnight (with or without RA). […] Also, our previous study used hPSCs exclusively maintained on MEFs.\nFIG. 5 dictates the timing of co-culture experiments. During the subculture phase, hPSC-derived BMECs were monocultured or co-cultured with pericytes or fibroblasts in EC medium (with or without RA). After the 24 h subculture phase, hPSC-derived BMECs were maintained as a monoculture or co-cultured with differentiated hNPCs, pericytes, or fibroblasts. Depending on the experiment, co-culture was conducted in NPC differentiation medium containing 10% FBS (as opposed to the 1% FBS used during NPC differentiation) or hESFM containing 1% PDS but not bFGF (modified EC medium). Trans-endothelial electrical resistance (TEER) was measured immediately prior to co-culture using an EVOM voltohmmeter (World Precision Instruments, Sarasota, Fla., USA) and approximately every 24 h thereafter as necessary."}, "IMR90-4-derived BMECs [3]": {"tested_on": "IMR90-4-derived BMECs", "assay": "Efflux transporter substrate accumulation", "conditions": "10 μM RA vs. DMSO-treated controls; 1 h at 37° C.", "method": "(§1) hiPSC-derived BMECs differentiated in the presence or absence of RA were subcultured onto 12-well plates in EC medium with 10 μM RA or equivalent DMSO depending on the differentiation condition. […] Cells were washed three times with phosphate-buffered saline (PBS) and then lysed with PBS containing 5% Triton X-100 (TX-100; Fisher). Fluorescence (485 nm excitation and 530 nm emission) was measured using a plate reader and radioactivity was measured on a scintillation counter. Fluorescence/radioactivity was normalized on a per cell basis by counting trypsin-dissociated cells on a hemacytometer. Duplicate or triplicate wells were used for each condition to calculate mean and standard deviation. Each experiment was conducted twice to ensure biological reproducibility."}, "DF19-9-11T-derived BMECs": {"tested_on": "DF19-9-11T-derived BMECs", "assay": "Efflux transporter substrate accumulation", "conditions": "due to RA treatment", "method": "as §1"}}, "note": "“And” between values parts separate entries of the source, which are not always exact repeats. Equal values may be shown once.", "data": [{"smiles": "CC1=C(/C=C/C(C)=C/C=C/C(C)=C/C(=O)O)C(C)(C)CCC1", "note": "[RA, retinoic acid]", "values": [{"measurement": "ABCB1 (p-glycoprotein) upregulation, ΔΔCt", "setting": "[1]", "value": "1.6±0.4"}, {"measurement": "ABCC1 (MRP1) upregulation, ΔΔCt", "setting": "[1]", "value": "1.97±0.71"}, {"measurement": "ABCC2 (MRP2) upregulation, ΔΔCt", "setting": "[1]", "value": "1.3±0.31"}, {"measurement": "ABCC5 (MRP5) upregulation, ΔΔCt", "setting": "[1]", "value": "0.9±0.29"}, {"measurement": "ABCG2 (BCRP) upregulation, ΔΔCt", "setting": "[1]", "value": "1.8±0.15"}, {"measurement": "TEER", "setting": "IMR90-4-derived BMECs [2]; 24 hours after transfer to EC medium without bFGF or RA, monoculture", "value": "above 2000 Ω×cm^2"}, {"measurement": "TEER", "setting": "IMR90-4-derived BMECs [2]; 24 hours in modified EC medium, fibroblasts (FIG. 11a)", "value": "2405±366 Ω×cm^2"}, {"measurement": "TEER", "setting": "IMR90-4-derived BMECs [2]; 24 hours in modified EC medium, monoculture control (FIG. 11a)", "value": "2474±124 Ω×cm^2"}, {"measurement": "TEER", "setting": "IMR90-4-derived BMECs [2]; 24 hours, sequential pericyte/hNPC co-culture in modified EC medium (FIG. 11a)", "value": "5160±318 Ω×cm^2"}, {"measurement": "TEER", "setting": "IMR90-4-derived BMECs [2]; pericyte/hNPC co-culture, each of 7 co-cultures, hNPCs differentiated 10-19 days, 10% FBS (FIG. 10c)", "value": "exceeded 2500 Ω×cm^2"}, {"measurement": "TEER under optimal conditions", "setting": "IMR90-4-derived BMECs [2]; pericytes/hNPCs in modified EC medium, five out of six separate co-culture experiments", "value": "> 5000 Ω×cm^2"}, {"measurement": "Maximum TEER", "setting": "IMR90-4-derived BMECs [2]; subculture: monoculture, co-culture phase: differentiated NPCs (10 days), 10% FBS", "value": "2938 ± 229 (3) Ω × cm^2"}, {"measurement": "Maximum TEER", "setting": "IMR90-4-derived BMECs [2]; subculture: pericytes, co-culture phase: differentiated NPCs (10 days), 10% FBS", "value": "3606 ± 366 (7) Ω × cm^2"}, {"measurement": "Maximum TEER", "setting": "IMR90-4-derived BMECs [2]; subculture: pericytes, co-culture phase: differentiated NPCs (17 days), 1% PDS", "value": "5352±252 Ω × cm^2 and 5352 ± 252 (6) Ω × cm^2"}, {"measurement": "Maximum TEER", "setting": "IMR90-4-derived BMECs [2]; subculture: pericytes, co-culture phase: pericytes, 1% PDS (modified EC medium), 24 h", "value": "4454±174 Ω × cm^2 and 4454 ± 175 ^ Ω × cm^2"}, {"measurement": "Maximum TEER", "setting": "IMR90-4-derived BMECs [2]; subculture: pericytes, co-culture phase: pericytes, 10% FBS", "value": "2892 ± 271 ^ Ω × cm^2"}, {"measurement": "Average TEER", "setting": "IMR90-4-derived BMECs [2]; t = 0 h, monoculture, mean ± S.D. between biological replicates", "value": "956 ± 345 Ω × cm^2"}, {"measurement": "Maximum TEER", "setting": "IMR90-4-derived BMECs [2]; t = 0 h, monoculture, mean ± S.D. between triplicate filters", "value": "1502 ± 145 Ω × cm^2"}, {"measurement": "Average TEER", "setting": "IMR90-4-derived BMECs [2]; t = 24 h, monoculture, modified EC medium without bFGF or RA, between biological replicates", "value": "2935±802 Ω × cm^2 and at least 2935±802 Ω × cm^2"}, {"measurement": "Maximum TEER", "setting": "IMR90-4-derived BMECs [2]; t = 24 h, monoculture, triplicate filters", "value": "3674 ± 367 Ω × cm^2"}, {"measurement": "baseline TEER", "setting": "IMR90-4-derived BMECs [2]; t=0 h, 24 hours after purification at confluence, range over experiments", "value": "300-1500 Ω×cm^2"}, {"measurement": "TEER", "setting": "IMR90-4-derived BMECs [2]; t=0, human foreskin fibroblasts in place of pericytes (FIG. 11a)", "value": "2106±30 Ω×cm^2"}, {"measurement": "TEER", "setting": "IMR90-4-derived BMECs [2]; t=0, monoculture control of FIG. 11a", "value": "1575±163 Ω×cm^2"}, {"measurement": "TEER", "setting": "IMR90-4-derived BMECs [2]; t=0, pericyte co-culture during the subculture phase, standard EC medium (FIG. 11a)", "value": "3573±175 Ω×cm^2"}, {"measurement": "decrease of DCFDA accumulation", "setting": "IMR90-4-derived BMECs [3]", "value": 2.9, "unit": "fold"}, {"measurement": "decrease of colchicine accumulation", "setting": "IMR90-4-derived BMECs [3]", "value": 2.4, "unit": "fold"}, {"measurement": "decrease of doxorubicin accumulation", "setting": "IMR90-4-derived BMECs [3]", "value": 1.6, "unit": "fold"}, {"measurement": "decrease of rhodamine 123 accumulation", "setting": "IMR90-4-derived BMECs [3]", "value": 1.4, "unit": "fold"}, {"measurement": "reduction in rhodamine 123 accumulation", "setting": "DF19-9-11T-derived BMECs", "value": 1.5, "unit": "fold"}]}]}
